Values of other authors, collected in paper PMC4914392 (Bioorganic & medicinal chemistry, 2016).

Settings: ref [17]

Nc1nccc2c1nnn2[C@@H]1O[C@H](CO)[C@@H](O)[C@H]1O [Compound 4, 8-aza-3-deazaadenosine]
Fluorescence emission λmax (H2O): 430 nm | Stokes shift (H2O): 140 nm
